Values joined by “and” are separate entries in the source; they are usually repeats but may differ in a detail not shown here. Equal values may be shown once.
Key:
L1210 leukemia = test: Antitumor activity vs transplantable L1210 leukemia (ip) in mice; assay type: in vivo, mouse; settings: for Max % T/C: dying mice only; for OD (optimum dose): optimum dose from the L1210 test
Source text: The antitumor activities of the complexes provided by the present invention have been determined against L-1210 leukemia in the mouse and, for certain of the complexes, against other mouse tumor systems.
(§1) Results of antitumor testing against the transplantable mouse tumors L1210 leukemia, cisplatin-resistant L1210 leukemia, B16 melanoma, Madison 109 lung carcinoma and colon 26 carcinoma are shown below in Tables 1 and 2.
In Table 1 are shown the maximum % T/C values obtained for each platinum compound versus L1210 leukemia using both single and qd 1→5 dosing.
(§2) The methods used to evaluate the platinum complexes for antitumor activity and toxicity in animals are summarized below. These methods have been published elsewhere in more detail (Rose, et al. Cancer Treat. Rep. 66: 135, 1982; Florczyk, et al, Cancer Treat. Rep. 66: 187, 1982).
(§3) The parent line of L1210 leukemia (L1210) was maintained in DBA/2 mice by ip transplantation of 10^5 cells at weekly intervals. […] B16 malenoma (B16) was maintained by sc transplant in C57BL/6 mice every two weeks. Madison 109 lung carcinoma (M109) and colon 26 carcinoma (C26) were maintained by sc transplant in BALB/c mice every two weeks.
(§4) The level and route of tumor inoculum, host, group size, and drug treatment schedule and route for each tumor type are summarized below in Table 6. Each complex was evaluated initially against L1210 at 4 dose levels per schedule selected on the basis of lethality data provided by the Wadley Institute. In subsequent experiments with the other tumors the complexes were evaluated at a minimum of 3 dose levels selected on the basis of maximum tolerated levels in the L1210 experiments. Cisplatin-treated groups and a saline-treated (or untreated) tumor control group were included in each experiment.
(§5) The L1210 experiments were terminated on Day 30 whereas the B16, C26 and M109 experiments were terminated on Day 60 (some C26 experiments were terminated on Day 75). Mice alive at the termination day were autopsied and considered cured if no tumor was visible. […] A complex was considered active if it produced a % T/C value ≥125.

[1] = system: L1210/CDDP (cisplatin resistant line of L1210 leukemia); test: Antitumor activity vs cisplatin-resistant L1210 leukemia (L1210/CDDP) in mice; assay type: in vivo, mouse
Source text: Results of antitumor testing against the transplantable mouse tumors L1210 leukemia, cisplatin-resistant L1210 leukemia, B16 melanoma, Madison 109 lung carcinoma and colon 26 carcinoma are shown below in Tables 1 and 2. […]
as §2, §3, §4, §5

B16 melanoma [2] = test: Antitumor activity vs ip B16 melanoma in mice; assay type: in vivo, mouse; parameters: O.D.: unit not given here; settings: for O.D.: ip B16 (3×; 9×); for Max. % T/C: ip B16 (3×; 9×): q4d × 3 or qd 1-9, ip, dying mice only; for Ratio of Max. % T/C Complex/cDDP: ip B16, relative to concomitant cisplatin
Source text: as §2, §3
The level and route of tumor inoculum, host, group size, and drug treatment schedule and route for each tumor type are summarized below in Table 6. Each complex was evaluated initially against L1210 at 4 dose levels per schedule selected on the basis of lethality data provided by the Wadley Institute.
as §5

C26 carcinoma = test: Antitumor activity vs ip C26 (colon 26) carcinoma in mice; assay type: in vivo, mouse; parameters: O.D.: unit not given here; settings: for Max. % T/C: ip C26 (2×; 4×): q3d × 2 or qd 1-4, ip, dying mice only; for Ratio of Max. % T/C Complex/cDDP: ip C26, relative to concomitant cisplatin
Source text: as §1, §2, §3, §4, §5
8 q3d^b × 2 or qd 1-4, ip

M109 carcinoma = test: Antitumor activity vs ip M109 (Madison 109 lung) carcinoma in mice; assay type: in vivo, mouse; parameters: O.D.: unit not given here; settings: for O.D.: ip M109 (2×; 4×); for Max. % T/C: ip M109 (2×; 4×): q3d × 2 or qd 1-4, ip, dying mice only; for Ratio of Max. % T/C Complex/cDDP: ip M109, relative to concomitant cisplatin
Source text: as §1, §2, §3, §4, §5
8 q3d^a × 2 or qd 1-4, ip

B16 melanoma [3] = test: Antitumor activity vs B16 melanoma, sc tumor implant with iv drug dosing; assay type: in vivo, mouse; settings: for Max. % T/C: dying mice only
Source text: ^b Sc tumor implant with iv drug dosing.
as §3, §4, §5

BDF1 mice [4] = test: Nephrotoxicity: effect on blood urea nitrogen (BUN) in BDF1 mice; settings: for BUN↑, Mouse: effect relative to cisplatin
Method: The other compounds were in such short supply that they were tested for effects on BUN values using the optimum dose (O.D.) from the L1210 test for dose selection.
The toxicity studies were done in male BDF1 mice (25-29 gm) and castrated male Fitch ferrets (1-1.5 kg).
The complexes that were active against L1210 were evaluated for nephrotoxicity by determining their effects on blood urea nitrogen (BUN) levels in mice. Groups of 40-50 mice/experiment were bled from the retro-orbital plexus and individual BUN values determined by a modified urease method using a Centrifichem System 400. The test complex, or saline for controls, was given at several dose levels (5-10 mice/dose) in single ip injections. The highest dose of the complex usually corresponded to its LD50 value or 1.5 times its optimal single dose in the L1210 experiment. At least two lower doses were included to evaluate dose-related effects. The BUN values were measured 4 and 7 days after dosing. BUN values ≥30 mg% were considered indicative of drug-induced nephrotoxicity.

BDF1 mice [5] = test: Deaths (D.14) in the BUN test in BDF1 mice; assay type: in vivo, mouse
BDF1 mice [6] = test: Single-dose ip LD50 in BDF1 mice; assay type: in vivo, mouse; settings: 30 days observation
Method: Single-dose ip LD50 values were determined in BDF1 mice for the indicated complexes.

[7] = Solubility stated in the preparation examples
Solubility (Table 3) = settings: medium not given
[8] = L1210, Day 1, in intralipid plus ethanol
[9] = L1210, single dose Day 1, ip, (a), (b) determinations
[10] = L1210, single dose Day 1, ip, dose giving the Max % T/C, same order

| Compound | O.D. (optimal dose) (L1210 leukemia; L1210, QD 1 → 5, ip) [mg/kg/inj] | Max % T/C (L1210 leukemia; L1210, QD 1 → 5, ip) [%] | Max % T/C (L1210 leukemia; [9]) | O.D. (optimal dose) (L1210 leukemia; [10]) | OD (optimum dose) (L1210 leukemia) | O.D. (B16 melanoma [2]) | Max. % T/C (B16 melanoma [2]) [%] | O.D. (C26 carcinoma; ip C26 (2×; 4×)) | Max. % T/C (C26 carcinoma) [%] | O.D. (M109 carcinoma) | Max. % T/C (M109 carcinoma) | O.D. (B16 melanoma [3]) | Max. % T/C (B16 melanoma [3]) [%] | BUN↑, Mouse (BDF1 mice [4]) | Cures/total ([1]; Day 1) | O.D. (optimal dose) ([1]; Day 1) [mg/kg/inj] | Max % T/C ([1]; Day 1, dying mice only) [%] | Ratio of Max. % T/C Complex/cDDP (B16 melanoma [2]) | LD50 (BDF1 mice [6]) [mg/kg/ip] | Solubility in water [7] | other results |
| --- | --- | --- | --- | --- | --- | --- | --- | --- | --- | --- | --- | --- | --- | --- | --- | --- | --- | --- | --- | --- | --- |
| N[C@@H]1CCCC[C@H]1N.O=C([O-])C(F)(F)C(F)(F)C(F)(F)F.O=C([O-])C(F)(F)C(F)(F)C(F)(F)F.[Pt+2] (relative stereo) [Example 3, bis-heptafluorobutyrato trans(-)-1,2-diaminocyclohexane platinum(II)] | 3 | 186 | 157% | 48 mg/kg/inj | 24 mg/kg/ip | 1 | 182 | 16 | 119 | 12 and 8 | 118% and 103% | 4 | 164 | 0 |  |  |  |  |  |  | O.D. (optimal dose) (L1210 leukemia; [8]): 24 mg/kg/inj and 18 mg/kg/inj; Max % T/C (L1210 leukemia; [8]): 214% and 200%; Cures/total (L1210 leukemia; L1210, QD 1 → 5, ip): 2/6; O.D. (optimal dose) ([1]; Day 1, in intralipid plus ethanol): 12 mg/kg/inj; Max % T/C ([1]; Day 1, in intralipid plus ethanol, dying mice only): 195%; Incidence of BUN > 30 mg % (BDF1 mice [4]; 24 mg/kg ip): 0/3; Incidence of BUN > 30 mg % (BDF1 mice [4]; 36 mg/kg ip): 0/2; Deaths D.14 (BDF1 mice [5]; 24 mg/kg ip): 2/5; Deaths D.14 (BDF1 mice [5]; 36 mg/kg ip): 3/5 |
| N.N.[Cl][Pt][Cl] [Cisplatin, reference compound] |  |  |  |  | 8 mg/kg/ip |  |  |  |  |  |  | 6 | 152 |  |  |  |  |  |  |  | Max. % T/C (B16 melanoma [2]; listed as cDDP): 172% and 186% and 191% and 220% and 185% and 212% and 189%; Cures/total (C26 carcinoma; ip C26 (2×; 4×)): 2/8; Max. % T/C (C26 carcinoma; listed as cDDP): 176% and 163% and 144%; O.D. (C26 carcinoma; ip C26 (2×; 4×), listed as cDDP): 4 and 3 and 2.5; Max. % T/C (M109 carcinoma; listed as cDDP): 153% and 175% and 155% and 163% and 142%; Deaths D.14 (BDF1 mice [5]; 8 mg/kg ip, historical ranges, 20160 min): 0-40%; Deaths D.14 (BDF1 mice [5]; 10.5 mg/kg ip, historical ranges, 20160 min): 0-50%; Deaths D.14 (BDF1 mice [5]; 12 mg/kg ip, historical ranges, 20160 min): 20-100%; Deaths D.14 (BDF1 mice [5]; 14 mg/kg ip, historical ranges): 50-100% |
| CC(C)CC(C)(N)CN.[O-]B([O-])O.[Pt+2] (centres unmarked) [Example 10, borato 1,2-diamino-2,4-dimethylpentane platinum(II)] | 10 | 236 | 171% and 225% | 20 mg/kg/inj and 24 mg/kg/inj | 10-20 mg/kg/ip | 9 | 174 | 8 | 100 | 5 | 74% |  |  | < | 5/6 | 24 | 307 | .82 | 30 | soluble | Ratio of Max. % T/C Complex/cDDP (C26 carcinoma): .69; Ratio of Max. % T/C Complex/cDDP (M109 carcinoma): .48; Incidence of BUN > 30 mg % (BDF1 mice [4]; 17 mg/kg ip): 0/10; Incidence of BUN > 30 mg % (BDF1 mice [4]; 22.5 mg/kg ip): 1/10; Incidence of BUN > 30 mg % (BDF1 mice [4]; 30 mg/kg ip): 7/10; Deaths D.14 (BDF1 mice [5]; 17 mg/kg ip): 0/10; Deaths D.14 (BDF1 mice [5]; 22.5 mg/kg ip): 0/10; Deaths D.14 (BDF1 mice [5]; 30 mg/kg ip): 1/10; Solubility in methanol ([7]; methanol): soluble |
| NCC1(N)CCCCCCC1.O=C([O-])CP(=O)([O-])[O-].[H+].[Pt+2] [Example 15, phosphonoacetato 1-aminomethylcyclooctylamine platinum(II)] | 10 | 193 | 236% | 80 mg/kg/inj | 80 mg/kg/ip | 3 | 147 |  |  |  |  |  |  | < |  |  |  | .77 | 137 | very water-soluble | Incidence of BUN > 30 mg % (BDF1 mice [4]; 77 mg/kg ip): 0/10; Incidence of BUN > 30 mg % (BDF1 mice [4]; 103 mg/kg ip): 2/10; Incidence of BUN > 30 mg % (BDF1 mice [4]; 137 mg/kg ip): 7/10; Deaths D.14 (BDF1 mice [5]; 77 mg/kg ip): 0/10; Deaths D.14 (BDF1 mice [5]; 103 mg/kg ip): 3/10; Deaths D.14 (BDF1 mice [5]; 137 mg/kg ip): 9/10; Solubility (Solubility (Table 3)): 7000 µg/mL |
| phosphonoacetato trans(-)-1,2-diaminocyclohexane platinum(II) [Example 11] | 10 | 207 | 179% and 225% | 20 mg/kg/inj and 24 mg/kg/inj | 20 mg/kg/ip | 9 | 206 | 8 | 116 | 10 | 114% |  |  |  | 2/6 | 24 | 240 | .97 | 20 | soluble | Ratio of Max. % T/C Complex/cDDP (C26 carcinoma): .81; Ratio of Max. % T/C Complex/cDDP (M109 carcinoma): .74; Incidence of BUN > 30 mg % (BDF1 mice [4]; 20 mg/kg ip): 0/5; Incidence of BUN > 30 mg % (BDF1 mice [4]; 30 mg/kg ip): 0/5; Deaths D.14 (BDF1 mice [5]; 20 mg/kg ip): 0/5; Deaths D.14 (BDF1 mice [5]; 30 mg/kg ip): 0/5; Solubility in alcohol ([7]; alcohol): insoluble |
